One series deals with KMS-11 cells. The series is described as follows: KMS11-luciferase intravenous multiple myeloma mouse model with doxycycline-inducible NSD2 shRNA. It counts as in vivo, SCID-beige mice. The method, then:
Six- to eight-week-old female SCID-beige mice (Vital River, Beijing, China) were injected intravenously with 10^7 KMS-11 cells stably transduced with inducible NSD2 shRNA (sh4: 5′ ACATGCTCACTATAGACAA′3 (SEQ ID NO:8)) and tagged with luciferase. The injection of KMS11 cells was in 100 μl PBS with 50% Matrigel, with 8-10 mice per group/treatment. To induce the shRNA expression, mice were fed with water containing 5% sucrose and 0.2 mg/ml doxycycline. Images were taken weekly (with 200 μl/mouse D-luciferase intraperitoneal injection), and pathology such as paralysis was monitored.

For the next series, the system named is NSD2. The series is described as follows: Western blot of NSD2 knockdown by inducible shRNA in ALL cell lines. Type of series: cell-based, human. To be noted: induced with doxycycline, FIG. 13. As to the method: To test the hypothesis that the NSD2 E1099K mutation is important in the pathogenesis of ALL cells, several shRNA knockdown experiments were done. In these experiments, NSD2 shRNA sequences were cloned into pLKO-Tet-On vectors with the H1 promoter or U6 promoter. shRNA lentivitus was generated as described above. Cell lines were infected and selected by puromycin. All tet inducible shRNA cell lines are cultured using tet system approved FBS (Clontech, Cat#: 631106, Mountain View, Calif.). NSD2 Tet-inducible cellular proliferation assay was set up as the following. Cultured cells were placed at 0.2 million cells/ml in 10 ml and split into two wells (5 ml/well) in a 6-well plate. Doxycycline (100 ng/ml final) was added to one well at assay initiation and every 2-3 days to induce NSD2 Tet-inducible shRNAs. On days 4 and 8 the assayed cells (with and without doxycycline) were counted for viability and cell concentration (10^6 cell/ml) with Vi-cell. Assayed cells were then reset to 0.2×10^6 cells/ml in 5 ml every 4 days to keep the cells proliferating in log-phase. On day 8, 1 million cells were collected from assayed cells for Western blot analysis. The shRNA sequences used in the experiments were the following, and are used with this nomenclature in FIG. 13. […]

The subject of another series is JVM-3 line. The series is described as follows: NSD2 Tet-inducible cellular proliferation assay, JVM-3 cells. It counts as cell-based. To be noted: JVM-3 line (no E1099K), shRNA induced vs U6-empty control, FIG. 14. The method, then:
(§1) To test the hypothesis that the NSD2 E1099K mutation is important in the pathogenesis of ALL cells, several shRNA knockdown experiments were done. In these experiments, NSD2 shRNA sequences were cloned into pLKO-Tet-On vectors with the H1 promoter or U6 promoter. shRNA lentivitus was generated as described above. Cell lines were infected and selected by puromycin. All tet inducible shRNA cell lines are cultured using tet system approved FBS (Clontech, Cat#: 631106, Mountain View, Calif.). NSD2 Tet-inducible cellular proliferation assay was set up as the following. Cultured cells were placed at 0.2 million cells/ml in 10 ml and split into two wells (5 ml/well) in a 6-well plate. Doxycycline (100 ng/ml final) was added to one well at assay initiation and every 2-3 days to induce NSD2 Tet-inducible shRNAs. On days 4 and 8 the assayed cells (with and without doxycycline) were counted for viability and cell concentration (10^6 cell/ml) with Vi-cell. Assayed cells were then reset to 0.2×10^6 cells/ml in 5 ml every 4 days to keep the cells proliferating in log-phase. On day 8, 1 million cells were collected from assayed cells for Western blot analysis. The shRNA sequences used in the experiments were the following, and are used with this nomenclature in FIG. 13.
(§2) The shRNAs described above were then used in a cell proliferation assay. […]

The test system of a further series is SEM cells. The series can be described thus: NSD2 Tet-inducible cellular proliferation assay, SEM cells. It counts as cell-based. To be noted: SEM cells (E1099K), shRNA induced vs U6-empty control, FIG. 14. The method, then: as §1, §2
The test system of series [1] is H3K36me2 and H3K27me3 methylation. The series can be described thus: Western blot of histone H3 methylation status after shRNA knockdown in SEM cells. To be noted: NSD2 E1099K knocked down, FIG. 16. Type of series: cell-based. The method, then: NSD2 shRNA sequences were cloned into pLKO-Tet-On vectors with H1 promoter or U6 promoter. shRNA lentivitus was generated as described above. Cell lines were infected and selected by puromycin. All tet inducible shRNA cell lines are cultured using tet system approved FBS (Clontech, Cat#: 631106). The NSD2 Tet-inducible cellular proliferation assay was set up as follows. Cultured cells were placed at 0.2 million cells/ml in 10 ml and split into two wells (5 ml/well) in 6-well plate. Doxycycline (100 ng/ml final) was added to one well at assay initiation and every 2-3 days to induce NSD2 Tet-inducible shRNAs. On days 4 and 8 the assayed cells (with and without doxycycline) were counted for viability and cell concentration (10^6 cell/ml) with Vi-cell. Assayed cells were then reset to 0.2×10^6 cells/ml in 5 ml every 4 days to keep the cells proliferating in log-phase. On days 8, 1 million cells were collected from assayed cells for Western blot analysis. The shRNA sequences used in the experiments were the V17 (SEQ ID NO. 9) and 9A5 (SEQ ID NO. 10) as described in Example 11 above.
For example, this is clearly seen in SEM cells wherein NSD2 E1099K is knocked down with […]. The amount of NSD2 present is very low, as is H3K36me2 methylation.
A general note: Immunoblotting shows a protein as a band on a membrane.

For the substance “sh4: inducible NSD2 shRNA, 5' ACATGCTCACTATAGACAA 3' (SEQ ID NO:8)”, the tumor growth entry in the series on KMS-11 cells (KMS11-luciferase with inducible NSD2 shRNA, induction with doxycycline for 29 days, FIG. 3A) was “greatly inhibited tumor growth”. In addition, the “luciferase activity of tumors” value with KMS-11 cells (time course with vs without doxycycline induction, FIG. 3B) is listed as “greatly reduced”.

For “9A5 shRNA: NSD2 shRNA 5' GAATAAGCCTTACGGGAAA 3' (SEQ ID NO. 10), targets NSD2 isoforms containing the SET domain”, in the series on NSD2, the “expression of NSD2 and MMSET1” value was “capable of reducing expression of NSD2 and MMSET1”. Besides, the results for the “reduction of cell proliferation” value in the series on JVM-3 line and in the series with SEM cells were “about 15%” and “about 60%”, respectively. The H3K27me3 methylation result in series [1] was “robust H3K27me3 methylation”. Further, in series [1], the “amount of NSD2 and H3K36me2 methylation” value is reported as “very low”.

Values taken from patent US20150354006A1, “MARKERS FOR ACUTE LYMPHOBLASTIC LEUKEMIA” (Novartis AG, priority 2012, published 2015).
